Paper PMC11748363, “Antimicrobial and Antiproliferative Properties of 2‐Phenyl‐N‐(Pyridin‐2‐yl)acetamides” (Chemical Biology & Drug Design, 2025)
Values after ≈ are worked out from the molar mass of the structure shown. Like-named read-outs stand apart in the source and are kept apart here.

Columns and labels:
[1] = tested on: Candida albicans CCM 8320, ATCC 24433; assay: Antifungal microdilution broth MIC, CA
[2] = tested on: Staphylococcus epidermidis CCM 4418, ATCC 12228; assay: Antibacterial microdilution broth MIC, SE; assay type: cell-based
[3] = tested on: Escherichia coli CCM 3954, ATCC 25922; assay: Antibacterial microdilution broth MIC, EC; assay type: cell-based
[4] = tested on: Trichophyton interdigitale CCM 8377, ATCC 9533; assay: Antifungal microdilution broth MIC, TI; conditions: Trichophyton interdigitale
[5] = tested on: Mycolicibacterium aurum DSM 43999; assay: Antimycobacterial microdilution broth MIC (resazurin), M. aurum; assay type: cell-based; conditions: DSM43999, read-out: MIC M. aurum
[6] = tested on: Aspergillus fumigatus ATCC 204305; assay: Antifungal microdilution broth MIC, AF
[7] = tested on: Aspergillus flavus CCM 8363; assay: Antifungal microdilution broth MIC, AFla
[8] = tested on: Enterococcus faecalis CCM 4224, ATCC 29212; assay: Antibacterial microdilution broth MIC, EF; assay type: cell-based
[9] = tested on: Lichtheimia corymbifera CCM 8077; assay: Antifungal microdilution broth MIC, LC
[10] = tested on: Pseudomonas aeruginosa CCM 3955, ATCC 27853; assay: Antibacterial microdilution broth MIC, PA; assay type: cell-based
[11] = tested on: Candida parapsilosis CCM 8260, ATCC 22019; assay: Antifungal microdilution broth MIC, CP; conditions: Lodderomyces parapsilosis
[12] = tested on: Acinetobacter baumannii DSM 30007, ATCC 19606; assay: Antibacterial microdilution broth MIC, ACI; assay type: cell-based
[13] = tested on: Staphylococcus aureus CCM 4223, ATCC 29213; assay: Antibacterial microdilution broth MIC, SA; assay type: cell-based; conditions: Staphylococcus aureus
HepG2 cell line = assay: Cytotoxicity CellTiter 96, HepG2; assay type: cell-based, human; conditions: 24 h incubation, ^c compound precipitated in the testing medium, ^d over the limit of tested concentrations
[14] = tested on: Klebsiella pneumoniae CCM 4415, ATCC 10031; assay: Antibacterial microdilution broth MIC, KP
[15] = tested on: Mycolicibacterium smegmatis DSM 43465; assay: Antimycobacterial microdilution broth MIC (resazurin), M. smegmatis; assay type: cell-based; conditions: DSM43465, read-out: MIC M. smegmatis
[16] = tested on: Candida tropicalis CCM 8264, ATCC 750; assay: Antifungal microdilution broth MIC, CT
[17] = tested on: Candida krusei CCM 8271, ATCC 6258; assay: Antifungal microdilution broth MIC, CK; conditions: Pichia kudriavzevii
[18] = tested on: Staphylococcus aureus subsp. aureus CCM 4750, ATCC 43300 (MRSA); assay: Antibacterial microdilution broth MIC, MRSA; assay type: cell-based; conditions: Staphylococcus aureus
[19] = tested on: Mycobacterium tuberculosis H37Ra; assay: Antimycobacterial microdilution broth MIC (resazurin), Mtb H37Ra; assay type: cell-based; conditions: for MIC: Mycobacterium tuberculosis, H37RA
[20] = ATCC204305, 24 h, read-out: MIC AF 24h
[21] = ATCC204305, 48 h, read-out: MIC AF 48h
[22] = CCM8363, 24 h, read-out: MIC AFla 24h
[23] = CCM8363, 48 h, read-out: MIC AFla 48h
[24] = CCM8077, 24 h, read-out: MIC LC 24h
[25] = CCM8077, 48 h, read-out: MIC LC 48h

Structure (SMILES) | MIC ([1]; 24 h, read-out: MIC CA 24h) [µM] | MIC ([1]; 48 h, read-out: MIC CA 48h) [µM] | MIC ([2]; 24 h, read-out: MIC SE 24h) [µM] | MIC ([2]; 48 h, read-out: MIC SE 48h) [µM] | MIC ([3]; 24 h, read-out: MIC EC 24h) [µM] | MIC ([3]; 48 h, read-out: MIC EC 48h) [µM] | MIC ([4]; 72 h, read-out: MIC TI 72h) [µM] | MIC ([4]; 120 h, read-out: MIC TI 120h) [µM] | MIC [5] [µg/mL] | MIC [6, 20] [µM] | MIC [6, 21] [µM] | MIC [7, 22] [µM] | MIC [7, 23] [µM] | MIC ([8]; 24 h, read-out: MIC EF 24h) [µM] | MIC ([8]; 48 h, read-out: MIC EF 48h) [µM] | MIC [9, 24] [µM] | MIC [9, 25] [µM] | MIC ([10]; 24 h, read-out: MIC PA 24h) [µM] | MIC ([10]; 48 h, read-out: MIC PA 48h) [µM] | MIC ([11]; 24 h, read-out: MIC CP 24h) [µM] | other results
O=C(Cc1ccccc1)Nc1ccccn1 [Compound 1] | 500 (≈ 106 µg/mL) | 500 (≈ 106 µg/mL) | > 500 | > 500 | > 500 | > 500 | 500 (≈ 106 µg/mL) | 500 (≈ 106 µg/mL) | 250 (≈ 1180 µM) | > 500 | > 500 | > 500 | > 500 | > 500 | > 500 | > 500 | > 500 | > 500 | > 500 | 500 (≈ 106 µg/mL) | MIC ([11]; 48 h, read-out: MIC CP 48h): 500 µM (≈ 106 µg/mL); MIC ([12]; 24 h, read-out: MIC ACI 24h): > 500 µM; MIC ([12]; 48 h, read-out: MIC ACI 48h): > 500 µM; MIC ([13]; 24 h, read-out: MIC SA 24h): > 500 µM; MIC ([13]; 48 h, read-out: MIC SA 48h): > 500 µM; IC50 (HepG2 cell line): > 1000 µM; IC50 (HepG2 cell line; Homo sapiens, HepG2, 24 h): > 500 µM; MIC KP 24h [14]: > 500 µM; MIC KP 48h [14]: > 500 µM; MIC [15]: 62.5 µg/mL (≈ 294 µM); MIC ([16]; 24 h, read-out: MIC CT 24h): 500 µM (≈ 106 µg/mL); MIC ([16]; 48 h, read-out: MIC CT 48h): 500 µM (≈ 106 µg/mL); MIC ([17]; 24 h, read-out: MIC CK 24h): 500 µM (≈ 106 µg/mL); MIC ([17]; 48 h, read-out: MIC CK 48h): 500 µM (≈ 106 µg/mL); MIC ([18]; 24 h, read-out: MIC MRSA 24h): > 500 µM; MIC ([18]; 48 h, read-out: MIC MRSA 48h): > 500 µM; MIC ([19]; read-out: MIC Mtb H37Ra (μM)): 147 µM; MIC ([19]; read-out: MIC Mtb H37Ra (μg/mL)): 31.2 µg/mL
O=C(Cc1ccccc1)Nc1ccc(Cl)cn1 [Compound 2] | > 500 | > 500 | > 500 | > 500 | > 500 | > 500 | > 500 | > 500 | 500 (≈ 2030 µM) | > 500 | > 500 | > 500 | > 500 | > 500 | > 500 | > 500 | > 500 | > 500 | > 500 | > 500 | MIC ([11]; 48 h, read-out: MIC CP 48h): > 500 µM; MIC ([12]; 24 h, read-out: MIC ACI 24h): > 500 µM; MIC ([12]; 48 h, read-out: MIC ACI 48h): > 500 µM; MIC ([13]; 24 h, read-out: MIC SA 24h): > 500 µM; MIC ([13]; 48 h, read-out: MIC SA 48h): > 500 µM; IC50 (HepG2 cell line; Homo sapiens, HepG2, 24 h): > 100 µM; MIC KP 24h [14]: > 500 µM; MIC KP 48h [14]: > 500 µM; MIC [15]: 500 µg/mL (≈ 2030 µM); MIC ([16]; 24 h, read-out: MIC CT 24h): > 500 µM; MIC ([16]; 48 h, read-out: MIC CT 48h): > 500 µM; MIC ([17]; 24 h, read-out: MIC CK 24h): > 500 µM; MIC ([17]; 48 h, read-out: MIC CK 48h): > 500 µM; MIC ([18]; 24 h, read-out: MIC MRSA 24h): > 500 µM; MIC ([18]; 48 h, read-out: MIC MRSA 48h): > 500 µM; MIC ([19]; Calculated from MIC (μg/mL), read-out: MIC Mtb H37Ra): 63.3 µM; MIC ([19]; read-out: MIC Mtb H37Ra): 15.6 µg/mL; SI (selectivity index) ([19]; SI = HepG2 IC50 (μM)/MIC MtbH37Ra (μM), calculated for compounds with MIC ≤ 31.25 μg/mL): > 1.6
